The values that follow come from patent US9873719B2, “Salt and protease-resistance of antimicrobial peptide and the manufacture thereof” (priority 2013, dated 2018).

By fraction remaining is commonly meant the share of the starting amount still present when the sample was taken.

One series can be described thus: in vitro. The series is classed as in vitro ADME, bovine. How it is done:
Serum stability of the peptides was determined in 25% (v/v) aqueous bovine calf serum (HyClone, cat. AUE-34962). Firstly, peptides were dissolved in serum at a concentration of 150 μg/mL and incubated at 37° C. After 45 min on ice for precipitating serum proteins, the serum was centrifuged at 12,000 g for 10 min at 4° C., and then the supernatants were lyophilized. Remaining amount of the peptides was determined by RP-HPLC.

Series [1] deals with Eschericha coli (ATCC 25922), Staphylococcus aureus (ATCC 25923, 29213, and 19636), and Pseudomonas aeruginosa (ATCC 27853 and 9027). Briefly: Salt resistance test: antibacterial activity assay (NCCLS microdilution, MIC90). The series is classed as cell-based. The settings on record: for antimicrobial activity: at MHB medium or the high-salt condition, FIG. 1a/1b; for antimicrobial activity compared with reference peptide (S1 or S2-Nal): MHB medium or the high-salt condition, comparison in words; for antimicrobial activity at 300 mM NaCl: FIG. 1b. An excerpt:
Antibacterial activity assay was used to determine the antimicrobial activity of S1, Nal-S1, S1-Nal-Nal, S1-Nal-Nal-Nal, S1-W, S1-W-W, S1-K-K-K, S2-Nal, S2-F-Nal, S2-Nal-Nal at different salt concentration. Eschericha coli (ATCC 25922), Staphylococcus aureus (ATCC 25923, 29213, and 19636), and Pseudomonas aeruginosa (ATCC 27853 and 9027) were used in the Example.
Microdilution method of National Committee for Clinical Laboratory Standards (NCCLS) was used to determine the minimal inhibition concentration (MIC). The MIC as used herein is a minimum inhibitory concentration required to inhibit the growth of 90% of organisms (MIC90).
In the Microdilution method, 1 μl of peptide solution (5,000 μg/ml to 78.1 μg/ml) and 99 μl of bacteria suspension were mixed and added into 96 wells plates. After 16 hours of incubation at 37° C., the optical density (O.D.) value at 600 nm was detected by ELISA (Thermo Max, Molecular Devices, Sunnyvale, Calif.). The Muller-Hinton Broth (MHB) medium without peptide and bacterial suspension were used as negative control and positive control, separately. The MIC value means a minimum inhibitory concentration required to inhibit the growth (equal or more than 90%) of bacteria.

Series [2] has as its system human red blood cells (hRBCs).
Description: The hemolysis of peptides was determined by evaluating the effect of peptides on human red blood cells (hRBCs). hRBCs were obtained by washing the heparinized blood with PBS buffer three times, and stored at physiological saline with 10% phosphate buffer. The peptides were dissolved in PBS buffer, and then 50 μl of 10% (v/v) hRBCs was added to the PBS buffer at 37° C. for 1 hour of incubation (the final volume concentration of the hRBCs was 5%). After 1 hour of incubation, the hBRCs were centrifuged, and the hemolysis ratio was determined by detecting the absorbance values at 540 nm using a spectrophotometer. The hemolysis ratio of hRBCs without treatment was defined as 0%, and the hemolysis ratio of hRBCs treated with 1% Triton-X 100 was defined as 100%.

Square brackets hold non-standard residues; d marks the D form. Peptide text beside a SMILES is read from it. 2Nal = N[C@@H](Cc1ccc2ccccc2c1)C(=O)O

With `CC(=O)N[C@@H](CCCCN)C(=O)N[C@@H](CCCCN)C(=O)N[C@@H](Cc1ccc2ccccc2c1)C(=O)N[C@@H](CCCNC(=N)N)C(=O)N[C@@H](CCCCN)C(=O)N[C@@H](Cc1ccc2ccccc2c1)C(=O)N[C@@H](CC(C)C)C(=O)N[C@@H](C)C(=O)N[C@@H](CCCCN)C(=O)N[C@@H](CCCCN)C(N)=O` [Nal-S1, KK-Nal-RK-Nal-LAKK] (Ac-KK[2Nal]RK[2Nal]LAKK-NH2; C-terminus assumed), the “degree of protection of the peptides from degradation in bovine calf serum (rank order)” value (“degree of protection of the peptides” for short) in “in vitro” is on record as “S1-Nal-Nal-Nal>S2-Nal-Nal=S2-Nal>S1-Nal-Nal>S1-Nal>S2-F-Nal>S1-KKK>S1>Nal-S1=S1-W>S1-WW”. In addition, the antimicrobial activity entry in series [1] was “diminished”.

On to `CC(=O)N[C@@H](CCCCN)C(=O)N[C@@H](CCCCN)C(=O)N[C@@H](Cc1c[nH]c2ccccc12)C(=O)N[C@@H](CCCNC(=N)N)C(=O)N[C@@H](CCCCN)C(=O)N[C@@H](Cc1c[nH]c2ccccc12)C(=O)N[C@@H](CC(C)C)C(=O)N[C@@H](C)C(=O)N[C@@H](CCCCN)C(=O)N[C@@H](CCCCN)C(=O)N[C@@H](Cc1ccc2ccccc2c1)C(N)=O` [Peptide S1-Nal, KKWRKWLAKK-Nal] (Ac-KKWRKWLAKK[2Nal]-NH2; C-terminus assumed), for which, in the series “in vitro”, the “degree of protection of the peptides” value is reported as “S1-Nal-Nal-Nal>S2-Nal-Nal=S2-Nal>S1-Nal-Nal>S1-Nal>S2-F-Nal>S1-KKK>S1>Nal-S1=S1-W>S1-WW”. Also, the “antimicrobial activity compared with reference peptide (S1 or S2-Nal)” value in series [1] is “better than S1”.

Regarding `CC(=O)N[C@@H](CCCCN)C(=O)N[C@@H](CCCCN)C(=O)N[C@@H](Cc1c[nH]c2ccccc12)C(=O)N[C@@H](CCCNC(=N)N)C(=O)N[C@@H](CCCCN)C(=O)N[C@@H](Cc1c[nH]c2ccccc12)C(=O)N[C@@H](CC(C)C)C(=O)N[C@@H](C)C(=O)N[C@@H](CCCCN)C(=O)N[C@@H](CCCCN)C(=O)N[C@@H](Cc1ccc2ccccc2c1)C(=O)N[C@@H](Cc1ccc2ccccc2c1)C(N)=O` [Peptide S1-Nal-Nal, KKWRKWLAKK-Nal-Nal] (Ac-KKWRKWLAKK[2Nal][2Nal]-NH2; C-terminus assumed), in “in vitro”, the “degree of protection of the peptides” value was “S1-Nal-Nal-Nal>S2-Nal-Nal=S2-Nal>S1-Nal-Nal>S1-Nal>S2-F-Nal>S1-KKK>S1>Nal-S1=S1-W>S1-WW”. In series [1], the “antimicrobial activity compared with reference peptide (S1 or S2-Nal)” value is “better than S1” and the antimicrobial activity result is “still retained the antimicrobial activities”. Also, the “hemolytic activity compared with other peptides” value in series [2] is reported as “higher hemolytic activity than other peptides”.

Turning to `CC(=O)N[C@@H](CCCCN)C(=O)N[C@@H](Cc1c[nH]c2ccccc12)C(=O)N[C@@H](Cc1c[nH]c2ccccc12)C(=O)N[C@@H](CCCCN)C(=O)N[C@@H](Cc1ccccc1)C(=O)N[C@@H](Cc1ccc2ccccc2c1)C(N)=O` [Peptide S2-F-Nal, KWWK-F-Nal] (Ac-KWWKF[2Nal]-NH2; C-terminus assumed), the “degree of protection of the peptides” value in the series “in vitro” is on record as “S1-Nal-Nal-Nal>S2-Nal-Nal=S2-Nal>S1-Nal-Nal>S1-Nal>S2-F-Nal>S1-KKK>S1>Nal-S1=S1-W>S1-WW”. For the same molecule, in series [1], the “antimicrobial activity at 300 mM NaCl” value was “still retained their antimicrobial activities”, the “antimicrobial activity compared with reference peptide (S1 or S2-Nal)” value is “higher than that of S2-Nal” and the antimicrobial activity result is “diminished”.

In the case of `CC(=O)N[C@@H](CCCCN)C(=O)N[C@@H](Cc1c[nH]c2ccccc12)C(=O)N[C@@H](Cc1c[nH]c2ccccc12)C(=O)N[C@@H](CCCCN)C(=O)N[C@@H](Cc1ccc2ccccc2c1)C(N)=O` [Peptide S2-Nal, KWWK-Nal] (Ac-KWWK[2Nal]-NH2; C-terminus assumed), the “degree of protection of the peptides” value in the series “in vitro” is recorded as “S1-Nal-Nal-Nal>S2-Nal-Nal=S2-Nal>S1-Nal-Nal>S1-Nal>S2-F-Nal>S1-KKK>S1>Nal-S1=S1-W>S1-WW”. Further, the antimicrobial activity result in series [1] is “diminished”.

As for `CC(=O)N[C@@H](CCCCN)C(=O)N[C@@H](Cc1c[nH]c2ccccc12)C(=O)N[C@@H](Cc1c[nH]c2ccccc12)C(=O)N[C@@H](CCCCN)C(=O)N[C@@H](Cc1ccc2ccccc2c1)C(=O)N[C@@H](Cc1ccc2ccccc2c1)C(N)=O` [Peptide S2-Nal-Nal, KWWK-Nal-Nal] (Ac-KWWK[2Nal][2Nal]-NH2; C-terminus assumed), in “in vitro”, the “degree of protection of the peptides” value is recorded as “S1-Nal-Nal-Nal>S2-Nal-Nal=S2-Nal>S1-Nal-Nal>S1-Nal>S2-F-Nal>S1-KKK>S1>Nal-S1=S1-W>S1-WW”. Besides, in series [1], the “antimicrobial activity at 300 mM NaCl” value is reported as “still retained their antimicrobial activities”, the “antimicrobial activity compared with reference peptide (S1 or S2-Nal)” value is recorded as “higher than that of S2-Nal” and the antimicrobial activity entry is given as “diminished”.

For the molecule `CC(=O)N[C@@H](CCCCN)C(=O)N[C@@H](CCCCN)C(=O)N[C@@H](Cc1c[nH]c2ccccc12)C(=O)N[C@@H](CCCNC(=N)N)C(=O)N[C@@H](CCCCN)C(=O)N[C@@H](Cc1c[nH]c2ccccc12)C(=O)N[C@@H](CC(C)C)C(=O)N[C@@H](C)C(=O)N[C@@H](CCCCN)C(=O)N[C@@H](CCCCN)C(=O)N[C@@H](Cc1ccc2ccccc2c1)C(=O)N[C@@H](Cc1ccc2ccccc2c1)C(=O)N[C@@H](Cc1ccc2ccccc2c1)C(N)=O` [S1-Nal-Nal-Nal, KKWRKWLAKK-Nal-Nal-Nal] (Ac-KKWRKWLAKK[2Nal][2Nal][2Nal]-NH2; C-terminus assumed), the “degree of protection of the peptides” value in the series “in vitro” is “S1-Nal-Nal-Nal>S2-Nal-Nal=S2-Nal>S1-Nal-Nal>S1-Nal>S2-F-Nal>S1-KKK>S1>Nal-S1=S1-W>S1-WW”. This molecule also had a fraction remaining at 8 h, 150 μg/mL in the series “in vitro” (bovine, serum) of roughly 100%. Moreover, in series [1], the “antimicrobial activity compared with reference peptide (S1 or S2-Nal)” value is “better than S1” and the antimicrobial activity result is recorded as “still retained the antimicrobial activities”. In addition, the “hemolytic activity compared with other peptides” value in series [2] is listed as “higher hemolytic activity than other peptides”.

With “Ac-KKWRKWLAKK-NH2 [Peptide S1, Ac-KKWRKWLAKK-NH2]”, the “degree of protection of the peptides” value in “in vitro” is “S1-Nal-Nal-Nal>S2-Nal-Nal=S2-Nal>S1-Nal-Nal>S1-Nal>S2-F-Nal>S1-KKK>S1>Nal-S1=S1-W>S1-WW”. Further, the antimicrobial activity result in series [1] is given as “diminished”.

Take “Ac-KKWRKWLAKKKKK-NH2 (C-terminus assumed) [Peptide S1-K-K-K, KKWRKWLAKKKKK]”: the “degree of protection of the peptides” value in the series “in vitro” is “S1-Nal-Nal-Nal>S2-Nal-Nal=S2-Nal>S1-Nal-Nal>S1-Nal>S2-F-Nal>S1-KKK>S1>Nal-S1=S1-W>S1-WW”. Moreover, in series [1], the antimicrobial activity entry is given as “diminished”.

For the molecule “Ac-KKWRKWLAKKW-NH2 (C-terminus assumed) [Peptide S1-W, KKWRKWLAKKW]”, the “degree of protection of the peptides” value in the series “in vitro” is given as “S1-Nal-Nal-Nal>S2-Nal-Nal=S2-Nal>S1-Nal-Nal>S1-Nal>S2-F-Nal>S1-KKK>S1>Nal-S1=S1-W>S1-WW”. In series [1], the antimicrobial activity result is recorded as “diminished”.

Consider “Ac-KKWRKWLAKKWW-NH2 (C-terminus assumed) [Peptide S1-W-W, KKWRKWLAKKWW]”, for which the “degree of protection of the peptides” value in the series “in vitro” was “S1-Nal-Nal-Nal>S2-Nal-Nal=S2-Nal>S1-Nal-Nal>S1-Nal>S2-F-Nal>S1-KKK>S1>Nal-S1=S1-W>S1-WW”. The antimicrobial activity entry in series [1] is on record as “diminished”.
